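Exposure lasted 48 hours, with cells grown in 96-well plates and compounds tested at five concentrations. GI50: concentration for 50% inhibition of growth.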 Active and inactive are the calls of the source. No stated cut-off is given here; in the data, active = GI50 up to about 1.1 µM and inactive = higher.
Columns and labels:
Assay in all cases: DTP human tumour cell line panel, 48 h
DLD-1 = system: DLD-1
DMS-273 = system: DMS-273
HOP-18 = system: HOP-18
KM-20L2 = system: KM-20L2
LXFL 529 = system: LXFL 529
M19-MEL = system: M19-MEL
SNB-78 = system: SNB-78
RXF 631 = system: RXF 631
XF498 = system: XF498

Clc1cc(Cc2cc(Cl)c(Cl)c3c2OCOC3)c2c(c1Cl)COCO2
GI50 (DLD-1): > 100 µM (inactive)
GI50 (DMS-273): 38.7 µM (inactive)
GI50 (HOP-18): 23.8 µM (inactive)
GI50 (KM-20L2): > 100 µM (inactive)
GI50 (LXFL 529): 37.7 µM (inactive)
GI50 (M19-MEL): 82.8 µM (inactive)
GI50 (SNB-78): 45.1 µM (inactive)

COc1cc(Br)c(CC2=NCCc3cc(OC)c(OC)cc32)cc1OC
GI50 (DLD-1): 45.4 µM (inactive)
GI50 (DMS-273): 15.9 µM (inactive)
GI50 (HOP-18): 11.3 µM (inactive)
GI50 (KM-20L2): 3.18 µM (inactive)
GI50 (LXFL 529): 12.5 µM (inactive)
GI50 (M19-MEL): 27.9 µM (inactive)
GI50 (RXF 631): 10.2 µM (inactive)

O=C(c1cccs1)N(C(=S)N1CCN(c2ccccn2)CC1)C1CCCCC1
GI50 (DLD-1): 63.8 µM (inactive)
GI50 (DMS-273): 43.1 µM (inactive)
GI50 (HOP-18): > 100 µM (inactive)
GI50 (KM-20L2): 70.6 µM (inactive)
GI50 (LXFL 529): 58.6 µM (inactive)
GI50 (SNB-78): > 100 µM (inactive)

O=C(CSc1nnc(Cc2ccccc2)o1)Nc1ccccc1Cl
GI50 (DLD-1): > 100 µM (inactive)
GI50 (DMS-273): > 100 µM (inactive)
GI50 (HOP-18): > 100 µM (inactive)
GI50 (KM-20L2): > 100 µM (inactive)
GI50 (LXFL 529): > 100 µM (inactive)
GI50 (M19-MEL): > 100 µM (inactive)
GI50 (SNB-78): > 100 µM (inactive)

COc1ccc(C(CCC(C)=O)C(=O)O)cc1OC (stereo not drawn)
GI50 (DLD-1): > 100 µM (inactive)
GI50 (DMS-273): > 100 µM (inactive)
GI50 (HOP-18): > 100 µM (inactive)
GI50 (KM-20L2): > 100 µM (inactive)
GI50 (M19-MEL): > 100 µM (inactive)
GI50 (SNB-78): > 100 µM (inactive)
GI50 (XF498): > 100 µM (inactive)

CC1=Nc2c(ccc3c2C(=O)c2ccccc2C3=O)NC(c2cccc3c2CCC3)C1 (stereo not drawn)
GI50 (DLD-1): 46.1 µM (inactive)
GI50 (DMS-273): > 73.6 µM (inactive)
GI50 (HOP-18): > 67.3 µM (inactive)
GI50 (KM-20L2): > 100 µM (inactive)
GI50 (LXFL 529): > 100 µM (inactive)
GI50 (M19-MEL): > 43.4 µM (inactive)
GI50 (RXF 631): 70.1 µM (inactive)
GI50 (SNB-78): > 100 µM (inactive)
GI50 (XF498): > 100 µM (inactive)

Cc1cc(O)c2c(c1)OC1(C)CCC3C(C)(C)CCCC34COC2C14 (stereo not drawn)
GI50 (DLD-1): 20.4 µM (inactive)
GI50 (DMS-273): 14 µM (inactive)
GI50 (KM-20L2): 16.6 µM (inactive)
GI50 (LXFL 529): 15 µM (inactive)

Cc1cc2nc3c(C(OC4OC(CO)C(O)C(O)C4O)C(O)CO)nn(-c4ccccc4)c3nc2cc1C (stereo not drawn)
GI50 (DLD-1): > 100 µM (inactive)
GI50 (KM-20L2): > 100 µM (inactive)
GI50 (SNB-78): > 100 µM (inactive)
GI50 (XF498): > 100 µM (inactive)

CCCC(OCC)(OCC)OCC
GI50 (DLD-1): > 100 µM (inactive)
GI50 (DMS-273): 52.1 µM (inactive)
GI50 (HOP-18): > 100 µM (inactive)
GI50 (KM-20L2): > 100 µM (inactive)
GI50 (LXFL 529): > 100 µM (inactive)
GI50 (M19-MEL): > 100 µM (inactive)
GI50 (RXF 631): > 100 µM (inactive)
GI50 (SNB-78): > 100 µM (inactive)
GI50 (XF498): > 100 µM (inactive)

CCSC(SCC)=C1C(=O)N(c2ccccc2)N=C1C
GI50 (DLD-1): 11.8 µM (inactive)
GI50 (DMS-273): 16.1 µM (inactive)
GI50 (HOP-18): 13.2 µM (inactive)
GI50 (KM-20L2): 16.8 µM (inactive)
GI50 (LXFL 529): 10 µM (inactive)
GI50 (M19-MEL): 0.378 µM (active)
GI50 (SNB-78): 18.6 µM (inactive)
GI50 (XF498): 10.6 µM (inactive)

C[C@]12C=CC(=O)C=C1CC[C@H]1[C@@H]3C[C@@H](O)[C@](O)(C(=O)CO)[C@@]3(C)C[C@H](O)[C@@]12F [TRIAMCINOLONE]
GI50 (DLD-1): > 100 µM (inactive)
GI50 (DMS-273): > 100 µM (inactive)
GI50 (KM-20L2): > 100 µM (inactive)
GI50 (LXFL 529): > 100 µM (inactive)
GI50 (M19-MEL): > 100 µM (inactive)
GI50 (RXF 631): > 100 µM (inactive)
GI50 (SNB-78): > 100 µM (inactive)
GI50 (XF498): > 100 µM (inactive)

O=C(Nc1nc2ccccc2n1Cc1ccc(Cl)cc1)NC12CC3CC(CC(C3)C1)C2
GI50 (DLD-1): 36.2 µM (inactive)
GI50 (DMS-273): 13.8 µM (inactive)
GI50 (HOP-18): 27.6 µM (inactive)
GI50 (KM-20L2): 64.7 µM (inactive)
GI50 (LXFL 529): 20.3 µM (inactive)
GI50 (M19-MEL): 39.4 µM (inactive)
GI50 (XF498): 13.4 µM (inactive)

O=[N+]([O-])c1ccc(OCCNc2cccc3ccccc23)cc1
GI50 (DLD-1): 37.9 µM (inactive)
GI50 (DMS-273): 46.7 µM (inactive)
GI50 (HOP-18): > 100 µM (inactive)
GI50 (KM-20L2): > 100 µM (inactive)
GI50 (LXFL 529): 33.3 µM (inactive)
GI50 (M19-MEL): > 100 µM (inactive)
GI50 (RXF 631): > 100 µM (inactive)
GI50 (XF498): > 100 µM (inactive)

C=CCOc1cc2c(cc1C(C)c1ccc(OC)cc1)OCO2 (stereo not drawn)
GI50 (DLD-1): 0.533 µM (active)
GI50 (DMS-273): 0.421 µM (active)
GI50 (KM-20L2): 0.348 µM (active)
GI50 (LXFL 529): 0.718 µM (active)
GI50 (M19-MEL): 0.718 µM (active)
GI50 (SNB-78): 1.46 µM (inactive)
GI50 (XF498): 0.287 µM (active)
